Patent US20240368096A1 (Enanta Pharmaceuticals, Inc., priority 2022, published 2024)

Key:
HDV [1] = test: HDV infection in primary human hepatocytes (PHHs) and RNA quantification (RT-qPCR); assay type: cell-based; conditions: Hepatocyte, 192 h, HDV infection of primary human hepatocytes, viral RNA at day 8 post infection
From the text: Primary human hepatocytes (Thermo Fisher Scientific) were thawed in Williams E Medium with CM3000 supplement pack (Thermo Fisher Scientific) and seeded at 70,000 cells/well on collagen-coated 96-well plate. Six hours post-seeding, cell medium was changed to Williams E Medium with CM4000 cell maintenance supplement pack for further culture (Thermo Fisher Scientific). HDV virus collected from the supernatants of HuH7-END cells was purified in the presence of 6% polyethylene glycol (PEG). Viral titer was then quantified by RT-qPCR using HDV specific primers against a reference standard. On the day of infection, compounds were 4-fold serially diluted in DMSO and pre-incubated with PHHs for two hours before infecting with 100 GE/cell of HDV in 4% PEG. On day one post infection, HDV-containing media was aspirated, cells were washed once with PBS and then maintained in 2.5% DMSO containing media for the remainder of the assay. Viral RNA was isolated using RNeasy kits at day 8 post infection and reverse transcribed into cDNA using High-Capacity RNA-to-cDNA Kit. Relative HDV gene expression was quantified by RT-qPCR after normalization to expression of a housekeeping gene. Irrespective of readout, compound concentrations that reduce viral RNA by 50% relative to DMSO controls (EC50) are reported. EC50 ranges are as follows: A<0.1 μM; B 0.1-1 μM; C>1 μM.

HDV [2] = test: HDV infection in HepG2-NTCP cells and RNA quantification (RT-qPCR); assay type: cell-based; conditions: 288 h; HDV infection of HepG2-NTCP cells; viral RNA by RT-qPCR at day 12 post infection; read-out: Cellular EC50
Procedure: HDV virus collected from the supernatants of HuH7-END cells was purified in the presence of 6% polyethylene glycol (PEG). Viral titer was then quantified by RT-qPCR using HDV specific primers against a reference standard. For HDV infection, HepG2-NTCP cells were seeded in 96-well plates at 60,000 cells/well. On the day of infection, compounds were 4-fold serially diluted in DMSO and pre-incubated with HepG2-NTCP cells for two hours before infecting with 800 GE/cell of HDV in 4% PEG. On day one post infection, HDV-containing media was aspirated, cells were washed once with PBS and then maintained in 2.5% DMSO containing media for the remainder of the assay. Viral RNA was isolated using RNeasy kits (Qiagen) at day 12 post infection and reverse transcribed into cDNA using High-Capacity RNA-to-cDNA Kit (Thermo Fisher). Relative HDV gene expression was quantified by RT-qPCR after normalization to expression of a housekeeping gene. Irrespective of readout, compound concentrations that reduce viral RNA by 50% relative to DMSO controls (EC50) are reported. EC50 ranges are as follows: A<0.1 μM; B 0.1-1 μM; C>1 μM.

NTCP = biological target: T1, NTCP (Homo sapiens, UniProt Q14973); test: HepG2-NTCP preS1 binding competition assay (FITC-labeled myristoylated preS1 peptide); conditions: HepG2-NTCP cells; competition with FITC-labeled preS1 peptide
T1 construct: expressed in transfected cells; host or cells: HepG2-NTCP (clone A3, kept under puromycin)
T1 sequence (Q14973 1-349): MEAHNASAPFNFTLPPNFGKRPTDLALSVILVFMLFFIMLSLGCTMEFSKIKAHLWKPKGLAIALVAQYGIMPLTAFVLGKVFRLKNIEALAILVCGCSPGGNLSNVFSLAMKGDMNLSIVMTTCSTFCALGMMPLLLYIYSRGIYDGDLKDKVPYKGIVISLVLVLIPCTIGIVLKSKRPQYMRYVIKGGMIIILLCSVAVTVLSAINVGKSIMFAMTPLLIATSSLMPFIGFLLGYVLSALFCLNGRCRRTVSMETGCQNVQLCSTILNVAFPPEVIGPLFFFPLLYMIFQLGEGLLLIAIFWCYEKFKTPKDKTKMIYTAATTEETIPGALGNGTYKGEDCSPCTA
Procedure: HepG2-NTCP preS1 Binding Competition Assay
Myristoylated preS1 peptide (2-48 aa) conjugated to a C-terminal FITC tag was synthesized to evaluate preS1 binding to NTCP-expressing cells. HepG2-NTCP cells seeded in 384-wells were pre-treated with compounds for 2 hours prior to the addition of FITC-labeled preS1 peptide. After co-incubation for 30 minutes, unbound FITC-preS1 peptide was washed twice with PBS, and the fluorescence of preS1-FITC bound to cell surface was detected by Envision plate reader. EC50 ranges are as follows: A<0.1 μM; B 0.1-1 μM; C>1 μM.

HBV = HBV infection in HepG2-NTCP cells (HBeAg AlphaLISA in supernatants); assay type: cell-based; conditions: Hepatitis B virus, 192 h; HBV infection of HepG2-NTCP cells; HBeAg in supernatants at day 8 post infection; read-out: Cellular EC50
Method in brief: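 Readout was day-8 supernatant HBeAg by AlphaLISA, with EC50 set against DMSO controls and binned A<0.1 μM, B 0.1-1 μM, C>1 μM. Compounds were added 2 h before HBV (2000 GE/cell, 4% PEG, 0.5% DMSO) to HepG2-NTCP A3 cells; from day 1 medium held 2.5% DMSO.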

[3] = Donor 1, read-out: Cellular EC50 (μM) Donor 1

EC50 (HDV [2]) [nM] | EC50 (NTCP) [nM] | EC50 (HBV) [nM] | Structure (SMILES) | EC50 (HDV [1]; [3]) [µM] | EC50 (HDV [1]; Donor 2, read-out: Cellular EC50 (μM) Donor 2) [µM]
< 100 | < 100 | < 100 | CN1[C@H](C2CCCCC2)CN(c2ccccc2)c2cc(Cl)c(-c3cc(F)c(C(=O)O)s3)cc2S1(=O)=O [Example 116, (R)-5-(7-chloro-3-cyclohexyl-2-methyl-1,1-dioxido-5-phenyl-2,3,4,5-tetrahydrobenzo[f][1,2,5]thiadiazepin-8-yl)-3-fluorothiophene-2-carboxylic acid] | < 0.1 | 
< 100 |  | < 100 | CN1[C@H](C2CCCCC2)CN(c2ccccc2)c2cc(Cl)c(-c3ccc(F)c(C(=O)O)c3)cc2S1(=O)=O [Example 25, (R)-5-(7-chloro-3-cyclohexyl-2-methyl-1,1-dioxido-5-phenyl-2,3,4,5-tetrahydrobenzo[f][1,2,5]thiadiazepin-8-yl)-2-fluorobenzoic acid] | < 0.1 | 0.1 to 1
< 100 |  | < 100 | Cc1cc(-c2cc3c(cc2Cl)N(c2ccccc2)C[C@@H](C2CCCCC2)N(C)S3(=O)=O)sc1C(=O)O [Example 126, (R)-5-(7-chloro-3-cyclohexyl-2-methyl-1,1-dioxido-5-phenyl-2,3,4,5-tetrahydrobenzo[f][1,2,5]thiadiazepin-8-yl)-3-methylthiophene-2-carboxylic acid] |  | 
